Patent US20130337564A1, “Treatment of Pluripotent Cells” (Janssen Biotech, Inc., priority 2012, published 2013)

Tests used:
Assay type in all cases: cell-based
[1] = tested on: cells expressing pluripotency markers derived from human embryonic stem cells; experiment: MTS viability (toxicity) assay of cells expressing pluripotency markers; design: Raw data (duplicate), first replicate / Average: unit not given here; settings: for Raw data (duplicate), first replicate / Raw data (duplicate), second replicate: MTS viability assay raw reading; for Raw data (duplicate), first replicate: replicate 1; for Raw data (duplicate), second replicate: replicate 2; for Average: average of duplicate MTS raw readings; for % Control / viability at 10 µM: viability of cells expressing pluripotency markers, relative to control; for viability at 10 µM: Homo sapiens, Embryonic stem cell
Method: Derivation and maintenance of cells expressing pluripotency makers was conducted as has been described in Example 2. Cells were grown in DMEM:F12 supplemented with 2% FCS (Invitrogen), 100 ng/ml Activin A, 20 ng/ml Wnt-3a, and 50 ng/ml IGF (R&D Biosystems). Cells were seeded at a density of 10,000 cells/cm^2 on Falcon polystyrene flasks and grown in monolayer culture at 37° C., 5% CO2, low oxygen. After reaching 60-70% confluence, cells were passed by washing the monolayer with PBS and incubating with TrypLE (Invitrogen) for 3-5 minutes to allow detachment and single cell dispersal.
Screening was conducted using test compounds from a proprietary library of small molecules selected for their ability to inhibit GSK-3B enzyme activity. Compounds from this library were made available as 1 mM stocks, in a 96-well plate format in 50 mM HEPES, 30% DMSO. For assay, cells expressing pluripotency markers were washed, counted, and plated in normal culture medium at a seeding density of 20,000 cells per well in 96-well clear-bottom, dark-well plates (Costar). This seeding density was previously determined to yield optimal monolayer formation in overnight culture. On the following day, culture medium was removed, cell monolayers were rinsed three times with PBS, and test compounds were added to the wells in 80 μl aliquots, each diluted into assay medium at a final assay concentration of 10 μM. On day 2 of the assay, medium was removed from each well and replaced with a fresh aliquot of test compounds diluted into assay medium. Assay medium on days 1 and 2 of culture consisted of DMEM:F12 supplemented with 0.5% FCS and 100 ng/ml Activin A. On days 3 and 4 of culture, medium was removed from each well and replaced with DMEM:F12 supplemented with 2% FCS and 100 ng/ml Activin A (no test compound). On day 4 of assay, 15 μl of MTS (Promega) was added to each well and plates were incubated at 37° C. for 1.5 to 4 hours prior to reading optical density at 490 nm on a SpectraMax (Molecular Devices) instrument. Statistical measures consisting of mean, standard deviation, and coefficient of variation were calculated for each duplicate set. Toxicity was calculated for each test well relative to a positive control (wells treated with Activin A and Wnt3a on days 1 and 2 of culture).
A larger proportion of the compounds have minimal or no measurable toxicity in this cell-based assay.
A small panel of select compounds was repeat tested over a narrow dose titration range, again using cells expressing pluripotency markers in a similar assay as described above.

[2] = tested on: human embryonic stem cells (H9 line); experiment: High content screening assay: cell number (proliferative response)
Method: (§1) Maintenance of human embryonic stem cells (H9 line) was conducted as described in Example 1. Colonies of cells were maintained in an undifferentiated, pluripotent state with passage on average every four days. Passage was performed by exposing cell cultures to a solution of collagenase (1 mg/ml; Sigma-Aldrich) for 10 to 30 minutes at 37° C. followed by gentle scraping with a pipette tip to recover cell clusters. Clusters were allowed to sediment by gravity, followed by washing to remove residual collagenase. Cell clusters were split at a 1:3 ratio for routine maintenance culture or a 1:1 ratio for immediate assay. The human embryonic stem cell lines used were maintained at passage numbers less than passage 50 and routinely evaluated for normal karyotypic phenotype and absence of mycoplasma contamination.
(§2) Cell clusters used in the assay were evenly resuspended in normal culture medium and plated onto MATRIGEL-coated 96-well Packard VIEWPLATES (PerkinElmer) in volumes of […]. MEF conditioned medium supplemented with 8 ng/ml bFGF was used for initial plating and recovery. Daily feeding was conducted by aspirating spent culture medium from each well and replacing with an equal volume of fresh medium. Plates were maintained at 37° C., 5% CO2 in a humidified box throughout the duration of assay.
(§3) Screening was conducted using test compounds from a proprietary library of small molecules selected for their ability to inhibit GSK-3B enzyme activity. Compounds from this library were made available as 1 mM stocks, in a 96-well plate format in 50 mM HEPES, 30% DMSO. Screening compounds were tested in triplicate or duplicate sets. Primary screening assays were initiated by aspirating culture medium from each well followed by three washes in PBS to remove residual growth factors and serum. Test volumes of 80 to 100 μl per well were added back containing DMEM:F12 base medium (Invitrogen) supplemented with 0.5% FCS (HyClone) and 100 ng/ml activin A (R&D Biosystems) plus 10 μM test compound. Positive control wells contained the same base medium, substituting 10-20 ng/ml Wnt3a (R&D Biosystems) for the test compound. Negative control wells contained base medium with 0.5% FCS and activin A alone (AA only) or alternatively, 0.5% FCS without activin A or Wnt3a (no treatment). Wells were aspirated and fed again with identical solutions on day 2 of assay. On days 3 and 4, all assay wells were aspirated and converted to DMEM:F12 supplemented with 2% FCS and 100 ng/ml activin A (without test compound or Wnt3a); parallel negative control wells were maintained in DMEM:F12 base medium with 2% FCS and activin A (AA only) or alternatively, 2% FCS without activin A (no treatment).
(§4) At the end of culture, cells in 96-well plates were fixed with 4% paraformaldehyde at room temperature for 20 minutes, washed three times with PBS, and then permeabilized with 0.5% Triton X-100 for 20 minutes at room temperature. Alternatively, cells were fixed with ice cold 70% ethanol overnight at −20° C., washed three times with PBS, and then permeabilized with Triton X-100 for 5 minutes at 4° C. After fixing and permeabilizing, cells were washed again three times with PBS and then blocked with 4% chicken serum (Invitrogen) in PBS for 30 minutes at room temperature. Primary antibodies (goat anti-human Sox17 and goat anti-human HNF-3beta; R&D Systems) were diluted 1:100 in 4% chicken serum and added to cells for one hour at room temperature. Alexa Fluor 488 conjugated secondary antibody (chicken anti-goat IgG; Molecular Probes) was diluted 1:200 in PBS and added after washing the cells three times with PBS. To counterstain nuclei, 5 mM Draq5 (Alexis Biochemicals) was added for five minutes at room temperature. Cells were washed once with PBS and left in […] PBS for imaging.
(§5) Cells were imaged using an IN Cell Analyzer 1000 (GE Healthcare) utilizing the 51008bs dichroic for cells stained with Draq5 and Alexa Fluor 488. […]

[3] = tested on: Sox17 expression in human embryonic stem cells (H9 line); experiment: High content screening assay: Sox17 protein expression (differentiation); settings: for SOX-17 Expression Fold over Wnt 3a/AA control: total intensity normalised to Wnt 3a/AA control; for fold induction at 10 µM: Homo sapiens, Embryonic stem cell, read-out: SOX17 Expression, Fold over Wnt 3a/AA control; for fold induction at 10 µM / SOX17 Expression, Fold over Wnt 3a/AA control: 10 μM test compound with 100 ng/ml activin A on days 1-2, H9, total intensity by IN Cell Analyzer, strong and moderate hits
Method: as §1, §2, §3, §4, §5

[4] = tested on: HNF-3beta expression in human embryonic stem cells (H9 line); experiment: High content screening assay: HNF-3beta protein expression (differentiation); settings: for HNF-3b Expression Fold over Wnt 3a/AA control: total intensity normalised to Wnt 3a/AA control
Method: as §1, §2, §3, §4, §5

[5] = cell number in the wells analysed for HNF-3b expression
[6] = cell number in the wells analysed for HNF-3b expression, normalised to Wnt 3a/AA control
[7] = cell number in the wells analysed for SOX-17 expression
[8] = cell number in the wells analysed for SOX-17 expression, normalised to Wnt 3a/AA control
[9] = 10 μM test compound with 100 ng/ml activin A on days 1-2, H9, total cell number by IN Cell Analyzer, strong and moderate hits
[10] = 10 μM test compound with 100 ng/ml activin A on days 1-2, H9, total intensity by IN Cell Analyzer, strong and moderate hits

Compound	Raw data (duplicate), first replicate [1]	Raw data (duplicate), second replicate [1]	Average [1]	% Control [1] [%]	Proliferative Response Total cells [2, 5]	Proliferative Response Fold over Wnt 3a/AA control [2, 6] [fold]	Proliferative Response Total cells [2, 7]	Proliferative Response Fold over Wnt 3a/AA control [2, 8] [fold]	SOX-17 Expression Total Intensity [3]	SOX-17 Expression Fold over Wnt 3a/AA control [3] [fold]	HNF-3b Expression Total Intensity [4]	HNF-3b Expression Fold over Wnt 3a/AA control [4] [fold]	viability at 10 µM [1] [%]	fold induction at 10 µM [3]	Proliferative Response Fold over Wnt 3a/AA control [2, 9]	SOX17 Expression, Fold over Wnt 3a/AA control [3]	HNF3β Expression, Fold over Wnt 3a/AA control [4, 10]	fold induction at 10 µM ([2]; Homo sapiens, Embryonic stem cell, 10 μM test compound with 100 ng/ml activin A on days 1-2, H9, total cell number by IN Cell Analyzer, strong and moderate hits, read-out: Proliferative Response, Fold over Wnt 3a/AA control)	fold induction at 10 µM ([4]; Homo sapiens, Embryonic stem cell, 10 μM test compound with 100 ng/ml activin A on days 1-2, H9, total intensity by IN Cell Analyzer, strong and moderate hits, read-out: HNF3β Expression, Fold over Wnt 3a/AA control)
CN1CCCn2cc(c3ccccc32)C2=C(C(=O)NC2=O)c2cn(c3ccccc23)CCOCCOCC1 [Compound 3, 14-Methyl-6,7,9,10,12,13,14,15,16,17-decahydro-24H-5,27:18,23-di(metheno)dibenzo[l,r]pyrrolo[3,4-o][1,4,7,11,20]dioxatriazacyclodocosine-24,26(25H)-dione]	0.161	0.169	0.165	6.9	2184	0.4324	1766	0.2216	162790000	0.4343	189875000	0.4132							
NCCCn1nc(C2=C(c3cn(-c4csc5ccccc45)c4ccccc34)C(=O)NC2=O)c2ccccc21 [Compound 4]	0.132	0.137	0.134		2776		2914		230965000		125125000		2.6	0.616					
O=C1NC(=O)C2=C1c1cn(c3ncccc13)CCOCCOCCOCCOCCn1cc2c2cccnc21 [Compound 6, 10,11,13,14,16,17,19,20,22,23-Decahydro-1H-9,4:24,29-di(metheno)dipyrido[2,3-n:3′,2′-t]pyrrolo[3,4-q][1,4,7,10,13,22]tetraoxadiazacyclotetracosine-1,3(2H)-dione]	0.706	0.672	0.689	83.9	9728	1.926	9964.5	1.25	363855000	0.9706	635655000	1.3832			1.9264 Fold over Wnt 3a/AA control	0.9706 Fold over Wnt 3a/AA control	1.3832 Fold over Wnt 3a/AA control		
CN(C)CCCn1nc(C2=C(c3cn(-c4cccc5ccccc45)c4ccccc34)C(=O)NC2=O)c2ccccc21 [Compound 8]	0.165	0.154	0.159		5096		5706.5		319930000		341360000		5.2	0.853				1.01	0.743
COCCN1CCOCCn2cc(c3ccccc32)C2=C(C(=O)NC2=O)c2nn(c3ccccc23)CCOCC1 [Compound 10, 11-(2-Methoxyethyl)-6,7,10,11,12,13,15,16-octahydro-9H,23H-5,26-(azeno)-17,22-(metheno)dibenzo[k,q]pyrrolo[3,4-n][1,7,4,10,19]dioxatriazacyclohenicosine-23,25(24H)-dione]	0.601	0.620	0.611	72.2	4507	0.8926	4645.5	0.5829	257295000	0.6864	312605000	0.6803			0.8926 Fold over Wnt 3a/AA control	0.6864 Fold over Wnt 3a/AA control	0.6803 Fold over Wnt 3a/AA control		
